Results published in ChEMBL document CHEMBL1133024, “Antineoplastic agents. 443. Synthesis of the cancer cell growth inhibitor hydroxyphenstatin and its sodium diphosphate prodrug” (J Med Chem, 2000).
pIC50: −log10 of the molar value. In brackets after ≈: the same amount, converted by molar mass.

Legend:
Candida albicans = assay: Evaluated for antimicrobial activity against Candida albicans; type: functional
Cryptococcus neoformans = assay: Evaluated for antimicrobial activity against Cryptococcus neoformans; type: functional
Neisseria gonorrhoeae = assay: Evaluated for antimicrobial activity against Neisseria gonorrhoeae; type: functional
DU-145 [1] = assay: Evaluated for growth inhibition (anticancer activity) of Human prostate cancer DU-145 cell line; type: functional
RPMI-7951 = assay: Evaluated for growth inhibition (anticancer activity) of Human melanoma cancer RPMI-7951 cell line; type: functional
Micrococcus luteus = assay: Antimicrobial activity against Micrococcus luteus.; type: functional
BXPC-3 = assay: Evaluated for growth inhibition (anticancer activity) of human pancreas-a BXPC-3 cell line.; type: functional
SF-295 [2] = assay: Evaluated for growth inhibition (anticancer activity) of Human CNS cancer SF-295 cell line; type: functional
P388 = assay: Evaluated for growth inhibition (anticancer activity) of Murine P388 lymphocytic leukemia cell line; type: functional; conditions: Mus musculus
NCI-H460 [3] = assay: Evaluated for growth inhibition (anticancer activity) of Human lung-NSC cancer NCI-H460 cell line; type: functional
KM-20L2 = assay: Evaluated for growth inhibition (anticancer activity) of Human colon KM20L2 cancer cell line; type: functional
DU-145 [4] = assay: Evaluated for growth inhibition (anticancer activity) in Human prostate cancer DU-145 cell line; type: functional
Tubulin alpha chain = Tubulin alpha chain (Sus scrofa, UniProt P02550); assay: Inhibition of tubulin polymerization; type: functional
Tubulin alpha chain, sequence (P02550 whole entry, looked up): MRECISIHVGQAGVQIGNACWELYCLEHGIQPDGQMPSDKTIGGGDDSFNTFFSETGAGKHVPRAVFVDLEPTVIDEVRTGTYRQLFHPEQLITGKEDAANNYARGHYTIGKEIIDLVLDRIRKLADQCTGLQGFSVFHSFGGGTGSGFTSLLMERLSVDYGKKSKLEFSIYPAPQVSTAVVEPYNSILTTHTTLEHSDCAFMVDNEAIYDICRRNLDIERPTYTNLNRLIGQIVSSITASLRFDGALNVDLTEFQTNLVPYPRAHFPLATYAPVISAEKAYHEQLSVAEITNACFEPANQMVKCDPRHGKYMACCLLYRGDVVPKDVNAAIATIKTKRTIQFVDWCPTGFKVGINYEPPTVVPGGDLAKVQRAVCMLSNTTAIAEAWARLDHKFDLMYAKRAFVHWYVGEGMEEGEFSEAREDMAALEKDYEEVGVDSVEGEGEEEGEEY

[5] = molecular target: Tubulin alpha chain (Sus scrofa) (UniProt P02550); assay: Inhibition of colchicine binding; type: functional; conditions: concentration not given here
Tubulin alpha chain (Sus scrofa), sequence (P02550 whole entry, looked up): as above

NCI-H460 [6] = assay: Evaluated for growth inhibition (anticancer activity) of Human lung-NSC cancer NCI-H460 cell line
[7] = tested on: Stenotrophomonas maltophilia; assay: Evaluated for antimicrobial activity against Stenotrophomonas maltophilia; type: functional
Staphylococcus aureus = assay: Evaluated for antimicrobial activity against Staphylococcus aureus; type: functional
Escherichia coli = assay: Evaluated for antimicrobial activity against Escherichia coli; type: functional
SF-295 [8] = assay: Evaluated for growth inhibition (anticancer activity) in Human CNS cancer SF-295 cell line; type: functional

COc1ccc(Br)c(C=O)c1O
MIC (Candida albicans): 50 ug disk-1 | MIC (Cryptococcus neoformans): 12.5 ug disk-1 | MIC (Neisseria gonorrhoeae): 12.5 ug disk-1

COc1cc(C(=O)c2ccc(OC)c(OP(=O)(OCc3ccccc3)OCc3ccccc3)c2OP(=O)(OCc2ccccc2)OCc2ccccc2)cc(OC)c1OC
GI50 (DU-145 [1]): > 10 µg/mL | GI50 (RPMI-7951): > 10 µg/mL | MIC (Micrococcus luteus): 50 µg/mL (≈ 58.5 µM) | GI50 (BXPC-3): > 10 µg/mL | GI50 (SF-295 [2]): > 10 µg/mL | GI50 (P388): 2.55 µg/mL (≈ 2.98 µM) | GI50 (NCI-H460 [3]): > 10 µg/mL | GI50 (KM-20L2): 5.9 µg/mL (≈ 6.9 µM)

COc1cc(/C=C\c2ccc(OC)c(OP(=O)([O-])[O-])c2OP(=O)([O-])[O-])cc(OC)c1OC.[Na+].[Na+].[Na+].[Na+]
GI50 (BXPC-3): 1.5 µg/mL | GI50 (SF-295 [2]): 0.036 µg/mL | GI50 (P388): < 0.01 µg/mL | GI50 (DU-145 [4]): 0.034 µg/mL | GI50 (NCI-H460 [3]): 0.038 µg/mL

COc1ccc(/C=C\c2cc(OC)c(OC)c(OC)c2)c(O)c1O [COMBRETASTATIN A-1]
GI50 (DU-145 [1]): 0.17 µg/mL (≈ 0.512 µM) | GI50 (BXPC-3): 4.4 µg/mL (≈ 13.2 µM) | pIC50 (Tubulin alpha chain): 5.96 | inhibition [5]: 99.6% | GI50 (P388): 0.3 µg/mL (≈ 0.903 µM) | GI50 (KM-20L2): 0.061 µg/mL (≈ 0.184 µM) | GI50 (NCI-H460 [6]): 0.74 µg/mL (≈ 2.23 µM)

COc1cccc(C=O)c1OC(C)=O
MIC [7]: 50 ug disk-1 | MIC (Cryptococcus neoformans): 25 ug disk-1

COCOc1c(OC)ccc(C(=O)c2cc(OC)c(OC)c(OC)c2)c1OCOC
GI50 (DU-145 [1]): > 10 µg/mL | GI50 (RPMI-7951): > 10 µg/mL | GI50 (BXPC-3): > 10 µg/mL | inhibition [5]: > 10% | GI50 (SF-295 [2]): > 10 µg/mL | GI50 (P388): > 10 µg/mL | GI50 (NCI-H460 [3]): > 10 µg/mL

COc1cc(C(=O)c2ccc(OC)c(OC)c2OC)cc(OC)c1OC
GI50 (DU-145 [1]): 32.5 µg/mL (≈ 89.7 µM) | GI50 (BXPC-3): 14.2 µg/mL (≈ 39.2 µM) | GI50 (SF-295 [2]): 23.1 µg/mL (≈ 63.7 µM) | GI50 (P388): > 10 µg/mL | GI50 (NCI-H460 [3]): 19 µg/mL (≈ 52.4 µM)

COc1ccc(/C=C\c2cc(OC)c(OC)c(OC)c2)cc1O [COMBRETASTATIN A4]
GI50 (DU-145 [1]): 0.0008 µg/mL (≈ 0.00253 µM) | GI50 (BXPC-3): 0.39 µg/mL (≈ 1.23 µM) | GI50 (SF-295 [2]): > 0.001 µg/mL | GI50 (P388): 0.0003 µg/mL (≈ 0.000948 µM) | GI50 (NCI-H460 [3]): 0.0006 µg/mL (≈ 0.0019 µM) | GI50 (KM-20L2): 0.34 µg/mL (≈ 1.07 µM)

COc1cc(C(=O)c2ccc(OC)c(OP(=O)([O-])[O-])c2OP(=O)([O-])[O-])cc(OC)c1OC.[Na+].[Na+].[Na+].[Na+]
GI50 (DU-145 [1]): 0.3 µg/mL | GI50 (BXPC-3): 5.3 µg/mL | pIC50 (Tubulin alpha chain): < 4.40 | GI50 (SF-295 [2]): 0.23 µg/mL | GI50 (P388): 0.0336 µg/mL | GI50 (NCI-H460 [3]): 0.35 µg/mL | GI50 (KM-20L2): 33.5 µg/mL

COc1ccc(Br)c(O)c1O
MIC (Staphylococcus aureus): 25 ug disk-1 | MIC [7]: 25 ug disk-1 | MIC (Escherichia coli): 50 ug disk-1 | MIC (Neisseria gonorrhoeae): <6.25 ug disk-1

COc1ccc(/C=C\c2cc(OC)c(OC)c(OC)c2)cc1OP(=O)([O-])[O-].[Na+].[Na+] [FOSBRETABULIN DISODIUM]
pIC50 (Tubulin alpha chain): < 4.40 | GI50 (P388): 0.0004 µg/mL | GI50 (KM-20L2): 0.53 µg/mL | GI50 (SF-295 [8]): 0.036 µg/mL | GI50 (NCI-H460 [6]): 0.029 µg/mL

COc1ccc(C(=O)c2cc(OC)c(OC)c(OC)c2)c(O)c1O [HYDROXYPHENSTATIN]
GI50 (DU-145 [1]): 0.048 µg/mL (≈ 0.144 µM) | GI50 (RPMI-7951): 0.58 µg/mL (≈ 1.73 µM) | GI50 (BXPC-3): 3.5 µg/mL (≈ 10.5 µM) | pIC50 (Tubulin alpha chain): 6.09 | inhibition [5]: 77% | GI50 (SF-295 [2]): 0.04 µg/mL (≈ 0.12 µM) | GI50 (P388): 0.315 µg/mL (≈ 0.942 µM) | GI50 (NCI-H460 [3]): 0.21 µg/mL (≈ 0.628 µM)

COc1ccc(Br)c(C=O)c1OC(C)=O
MIC (Candida albicans): 12.5 ug disk-1 | MIC (Escherichia coli): 50 ug disk-1 | MIC (Cryptococcus neoformans): 6.25 ug disk-1 | MIC (Neisseria gonorrhoeae): 25 ug disk-1
